# From the kinase profiling compilation of Christmann-Franck et al. (2016)
# How the values were obtained:
# Assay in all cases: radiometric filter-binding kinase assay, Kinase HotSpot
# Settings in all cases: compound 0.5 µM; ATP 10 µM
# STK24 (human) = STK24 (human) (UniProt Q9Y6E0)
# HIPK3 (human) = HIPK3 (human) (UniProt Q9H422)
# TEC (human) = TEC (human) (UniProt P42680)
# TNK2 (human) = TNK2 (human) (UniProt Q07912)
# ACVRL1 (human) = ACVRL1 (human) (UniProt P37023)
# FGFR3 (human) = FGFR3 (human) (UniProt P22607)
# FER (human) = FER (human) (UniProt P16591)
# RPS6KA4 KD2 (human) = RPS6KA4 KD2 (human) (UniProt O75676)
# Chain of RPS6KA4 KD2 (human) (O75676 whole entry, looked up): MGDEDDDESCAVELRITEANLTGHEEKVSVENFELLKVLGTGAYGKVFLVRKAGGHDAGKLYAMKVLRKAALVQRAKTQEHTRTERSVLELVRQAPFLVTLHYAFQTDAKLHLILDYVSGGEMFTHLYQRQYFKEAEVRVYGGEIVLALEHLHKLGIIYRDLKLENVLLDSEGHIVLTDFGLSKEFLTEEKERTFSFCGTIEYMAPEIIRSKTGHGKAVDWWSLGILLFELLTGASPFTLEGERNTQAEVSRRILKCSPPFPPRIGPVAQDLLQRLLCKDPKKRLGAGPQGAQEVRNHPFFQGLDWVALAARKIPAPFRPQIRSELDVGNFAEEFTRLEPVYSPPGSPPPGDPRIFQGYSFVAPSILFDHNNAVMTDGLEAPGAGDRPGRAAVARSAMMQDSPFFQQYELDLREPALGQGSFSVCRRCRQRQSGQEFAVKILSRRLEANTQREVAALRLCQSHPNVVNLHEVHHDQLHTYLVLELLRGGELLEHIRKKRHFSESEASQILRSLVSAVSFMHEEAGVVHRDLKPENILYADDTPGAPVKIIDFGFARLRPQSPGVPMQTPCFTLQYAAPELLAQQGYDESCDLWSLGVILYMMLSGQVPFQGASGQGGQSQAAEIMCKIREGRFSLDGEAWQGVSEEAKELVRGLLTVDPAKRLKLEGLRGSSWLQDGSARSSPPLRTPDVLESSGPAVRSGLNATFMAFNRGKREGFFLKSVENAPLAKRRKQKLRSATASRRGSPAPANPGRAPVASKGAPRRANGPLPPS
# PDGFRA (human) = PDGFRA (human) (UniProt P16234)
# PRKX (human) = PRKX (human) (UniProt P51817)
# SLK (human) = SLK (human) (UniProt Q9H2G2)
# LIMK1 (human) = LIMK1 (human) (UniProt P53667)
# AURKC (human) = AURKC (human) (UniProt Q9UQB9)
# CDC42BPA (human) = CDC42BPA (human) (UniProt Q5VT25)
# ERBB4 (human) = ERBB4 (human) (UniProt Q15303)
# NEK7 (human) = NEK7 (human) (UniProt Q8TDX7)
# VRK1 (human) = VRK1 (human) (UniProt Q99986)
# PRKACG (human) = PRKACG (human) (UniProt P22612)
# NLK (human) = NLK (human) (UniProt Q9UBE8)
# Chain of NLK (human) (Q9UBE8 whole entry, looked up): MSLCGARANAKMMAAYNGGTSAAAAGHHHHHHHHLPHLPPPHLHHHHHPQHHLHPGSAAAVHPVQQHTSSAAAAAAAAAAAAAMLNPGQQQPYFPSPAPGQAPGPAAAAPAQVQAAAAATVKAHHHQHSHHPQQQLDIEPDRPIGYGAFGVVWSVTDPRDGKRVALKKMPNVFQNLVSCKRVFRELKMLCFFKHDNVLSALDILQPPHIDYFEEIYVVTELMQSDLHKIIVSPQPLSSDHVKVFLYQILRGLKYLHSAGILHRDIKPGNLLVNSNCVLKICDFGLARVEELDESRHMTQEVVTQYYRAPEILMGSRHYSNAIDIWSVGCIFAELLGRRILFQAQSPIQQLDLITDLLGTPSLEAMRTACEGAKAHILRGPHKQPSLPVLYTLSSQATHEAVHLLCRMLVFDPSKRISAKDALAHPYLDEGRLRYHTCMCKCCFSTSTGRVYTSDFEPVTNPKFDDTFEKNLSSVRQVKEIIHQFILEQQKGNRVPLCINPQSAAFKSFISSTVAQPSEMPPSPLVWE
# TAOK3 (human) = TAOK3 (human) (UniProt Q9H2K8)
# PKN1 (human) = PKN1 (human) (UniProt Q16512)
# Chain of PKN1 (human) (Q16512 whole entry, looked up): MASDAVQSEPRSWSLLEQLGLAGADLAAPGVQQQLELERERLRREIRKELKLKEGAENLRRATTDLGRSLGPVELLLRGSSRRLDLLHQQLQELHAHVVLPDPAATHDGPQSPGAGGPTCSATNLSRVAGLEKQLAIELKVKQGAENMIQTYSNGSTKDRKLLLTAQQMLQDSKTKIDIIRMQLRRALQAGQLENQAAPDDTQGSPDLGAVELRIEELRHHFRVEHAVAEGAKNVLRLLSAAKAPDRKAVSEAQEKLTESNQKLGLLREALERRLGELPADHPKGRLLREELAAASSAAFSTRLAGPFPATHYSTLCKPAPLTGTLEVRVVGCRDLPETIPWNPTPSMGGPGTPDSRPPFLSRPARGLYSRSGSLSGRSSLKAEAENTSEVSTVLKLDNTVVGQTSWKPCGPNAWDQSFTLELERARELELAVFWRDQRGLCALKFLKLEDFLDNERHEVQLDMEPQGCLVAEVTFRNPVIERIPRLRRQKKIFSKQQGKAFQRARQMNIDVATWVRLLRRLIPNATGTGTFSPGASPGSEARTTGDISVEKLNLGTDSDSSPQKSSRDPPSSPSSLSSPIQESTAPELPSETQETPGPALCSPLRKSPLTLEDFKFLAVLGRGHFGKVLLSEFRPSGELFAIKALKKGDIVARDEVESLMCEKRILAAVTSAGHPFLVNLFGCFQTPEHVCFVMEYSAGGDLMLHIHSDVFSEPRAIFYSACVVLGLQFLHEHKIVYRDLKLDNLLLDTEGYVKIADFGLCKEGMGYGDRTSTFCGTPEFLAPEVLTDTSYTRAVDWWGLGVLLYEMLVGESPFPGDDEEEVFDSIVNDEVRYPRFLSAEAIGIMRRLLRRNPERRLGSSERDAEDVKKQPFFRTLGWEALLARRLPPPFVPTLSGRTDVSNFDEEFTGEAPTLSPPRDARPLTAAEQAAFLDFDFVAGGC
# ACVR1B (human) = ACVR1B (human) (UniProt P36896)
# Chain of ACVR1B (human) (P36896 whole entry, looked up): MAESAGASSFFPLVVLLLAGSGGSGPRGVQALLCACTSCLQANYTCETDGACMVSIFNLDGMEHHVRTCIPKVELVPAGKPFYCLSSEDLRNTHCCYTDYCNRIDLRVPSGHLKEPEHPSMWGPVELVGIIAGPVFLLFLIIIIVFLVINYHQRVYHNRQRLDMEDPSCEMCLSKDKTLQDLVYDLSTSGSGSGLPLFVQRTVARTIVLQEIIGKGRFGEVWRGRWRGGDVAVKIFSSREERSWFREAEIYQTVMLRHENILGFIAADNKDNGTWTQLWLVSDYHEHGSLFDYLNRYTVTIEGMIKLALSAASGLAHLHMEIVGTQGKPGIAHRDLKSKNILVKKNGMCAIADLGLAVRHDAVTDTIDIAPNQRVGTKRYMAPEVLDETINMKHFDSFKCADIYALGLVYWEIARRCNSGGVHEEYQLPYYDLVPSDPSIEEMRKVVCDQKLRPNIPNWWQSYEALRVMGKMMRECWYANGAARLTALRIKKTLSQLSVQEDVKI
# RET (human) = RET (human) (UniProt P07949)
# MATK (human) = MATK (human) (UniProt P42679)
# CAMK1D (human) = CAMK1D (human) (UniProt Q8IU85)
# MAP3K3 (human) = MAP3K3 (human) (UniProt Q99759)
# PRKCH (human) = PRKCH (human) (UniProt P24723)
# RPS6KB2 (human) = RPS6KB2 (human) (UniProt Q9UBS0)
# ULK1 (human) = ULK1 (human) (UniProt O75385)
# MAP2K2 (human) = MAP2K2 (human) (UniProt P36507)
# PHKG1 (human) = PHKG1 (human) (UniProt Q16816)
# CSNK1A1 (human) = CSNK1A1 (human) (UniProt P48729)
# Chain of CSNK1A1 (human) (P48729 whole entry, looked up): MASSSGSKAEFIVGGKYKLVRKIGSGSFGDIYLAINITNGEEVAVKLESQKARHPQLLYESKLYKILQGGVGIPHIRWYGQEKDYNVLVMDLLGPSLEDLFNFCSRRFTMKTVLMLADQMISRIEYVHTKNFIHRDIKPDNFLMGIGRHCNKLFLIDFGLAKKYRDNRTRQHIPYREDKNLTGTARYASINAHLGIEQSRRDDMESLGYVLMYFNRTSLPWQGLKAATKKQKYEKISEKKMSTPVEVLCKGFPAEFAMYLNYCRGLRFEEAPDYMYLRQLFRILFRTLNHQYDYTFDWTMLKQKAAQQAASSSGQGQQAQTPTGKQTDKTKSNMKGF
# MAP3K14 (human) = MAP3K14 (human) (UniProt Q99558)
# PTK2 (human) = PTK2 (human) (UniProt Q05397)
# OXSR1 (human) = OXSR1 (human) (UniProt O95747)
# MYO3B (human) = MYO3B (human) (UniProt Q8WXR4)
# HIPK1 (human) = HIPK1 (human) (UniProt Q86Z02)
# PIM3 (human) = PIM3 (human) (UniProt Q86V86)
# MELK (human) = MELK (human) (UniProt Q14680)
# ALK (human) = ALK (human) (UniProt Q9UM73)
# KDR (human) = KDR (human) (UniProt P35968)
# CSF1R (human) = CSF1R (human) (UniProt P07333)
# Chain of TNK2 (human) (Q07912 whole entry, looked up): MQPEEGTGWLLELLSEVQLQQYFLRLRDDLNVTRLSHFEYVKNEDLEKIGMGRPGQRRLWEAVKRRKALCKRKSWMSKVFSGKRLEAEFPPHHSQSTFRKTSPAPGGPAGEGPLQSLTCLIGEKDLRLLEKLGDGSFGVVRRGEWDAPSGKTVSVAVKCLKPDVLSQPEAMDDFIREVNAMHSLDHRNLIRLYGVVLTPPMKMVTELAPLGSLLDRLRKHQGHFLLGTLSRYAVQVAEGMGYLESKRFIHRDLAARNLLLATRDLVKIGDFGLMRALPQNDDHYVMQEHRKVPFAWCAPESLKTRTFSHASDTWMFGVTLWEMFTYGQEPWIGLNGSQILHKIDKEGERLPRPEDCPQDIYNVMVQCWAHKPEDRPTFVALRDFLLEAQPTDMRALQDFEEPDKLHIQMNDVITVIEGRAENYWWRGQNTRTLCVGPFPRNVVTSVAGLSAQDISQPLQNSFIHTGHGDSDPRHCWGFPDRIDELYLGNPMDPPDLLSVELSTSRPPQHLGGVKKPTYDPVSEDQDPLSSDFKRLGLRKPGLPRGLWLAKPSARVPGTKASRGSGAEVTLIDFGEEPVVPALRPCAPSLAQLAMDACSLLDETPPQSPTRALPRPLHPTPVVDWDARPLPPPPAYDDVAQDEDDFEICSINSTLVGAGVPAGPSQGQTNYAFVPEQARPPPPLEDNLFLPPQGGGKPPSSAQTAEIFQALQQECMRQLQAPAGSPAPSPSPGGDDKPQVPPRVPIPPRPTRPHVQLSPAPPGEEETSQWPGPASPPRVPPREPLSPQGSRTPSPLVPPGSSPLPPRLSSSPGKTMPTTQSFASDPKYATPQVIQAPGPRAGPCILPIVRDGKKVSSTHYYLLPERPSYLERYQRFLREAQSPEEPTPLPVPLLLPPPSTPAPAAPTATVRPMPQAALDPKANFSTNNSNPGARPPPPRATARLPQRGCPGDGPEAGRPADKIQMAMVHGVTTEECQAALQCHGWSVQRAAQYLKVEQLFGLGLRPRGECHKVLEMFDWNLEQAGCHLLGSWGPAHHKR
# Chain of STK24 (human) (Q9Y6E0 whole entry, looked up): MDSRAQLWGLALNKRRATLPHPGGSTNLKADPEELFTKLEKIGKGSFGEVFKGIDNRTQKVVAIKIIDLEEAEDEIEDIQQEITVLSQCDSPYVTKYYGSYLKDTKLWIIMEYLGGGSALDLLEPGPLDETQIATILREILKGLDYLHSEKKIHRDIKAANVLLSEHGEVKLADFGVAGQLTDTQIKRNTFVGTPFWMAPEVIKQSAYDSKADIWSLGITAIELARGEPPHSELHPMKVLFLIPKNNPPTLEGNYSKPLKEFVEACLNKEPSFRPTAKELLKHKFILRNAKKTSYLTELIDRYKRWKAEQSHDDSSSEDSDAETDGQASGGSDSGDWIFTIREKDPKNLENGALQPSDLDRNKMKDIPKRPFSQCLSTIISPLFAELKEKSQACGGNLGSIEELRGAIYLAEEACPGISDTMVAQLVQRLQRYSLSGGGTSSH
smiles,measurement,setting,value
CNC(=O)c1cc(Oc2ccc(NC(=O)Nc3ccc(Cl)c(C(F)(F)F)c3)cc2)ccn1,residual activity,STK24 (human),110%
same,residual activity,HIPK3 (human),85.7%
same,residual activity,TEC (human),101%
same,residual activity,TNK2 (human),97.6%
same,residual activity,ACVRL1 (human),104%
same,residual activity,FGFR3 (human),89.5%
same,residual activity,FER (human),101%
same,residual activity,RPS6KA4 KD2 (human),97.7%
same,residual activity,PDGFRA (human),7.77%
same,residual activity,PRKX (human),97.7%
same,residual activity,SLK (human),96.8%
same,residual activity,LIMK1 (human),76.8%
same,residual activity,AURKC (human),106%
same,residual activity,CDC42BPA (human),85.2%
same,residual activity,ERBB4 (human),94.8%
same,residual activity,NEK7 (human),98.2%
same,residual activity,VRK1 (human),99.3%
same,residual activity,PRKACG (human),100%
same,residual activity,NLK (human),99.1%
same,residual activity,TAOK3 (human),63.5%
same,residual activity,PKN1 (human),106%
same,residual activity,ACVR1B (human),102%
same,residual activity,RET (human),1.78%
same,residual activity,MATK (human),114%
same,residual activity,CAMK1D (human),103%
same,residual activity,MAP3K3 (human),107%
same,residual activity,PRKCH (human),107%
same,residual activity,RPS6KB2 (human),103%
same,residual activity,ULK1 (human),94.3%
same,residual activity,MAP2K2 (human),89.7%
same,residual activity,PHKG1 (human),94.3%
same,residual activity,CSNK1A1 (human),97.8%
same,residual activity,MAP3K14 (human),96.4%
same,residual activity,PTK2 (human),102%
same,residual activity,OXSR1 (human),103%
same,residual activity,MYO3B (human),85.6%
same,residual activity,HIPK1 (human),99.7%
same,residual activity,PIM3 (human),100%
same,residual activity,MELK (human),93.6%
same,residual activity,ALK (human),97.3%
Cc1ccc(S(=O)(=O)/C=C/C#N)cc1,residual activity,STK24 (human),89.3%
same,residual activity,KDR (human),94.7%
same,residual activity,HIPK3 (human),100%
same,residual activity,TEC (human),144%
same,residual activity,TNK2 (human),94.9%
same,residual activity,ACVRL1 (human),100%
same,residual activity,FGFR3 (human),95.2%
same,residual activity,FER (human),104%
same,residual activity,RPS6KA4 KD2 (human),82.8%
same,residual activity,PDGFRA (human),94.2%
same,residual activity,PRKX (human),102%
same,residual activity,SLK (human),101%
same,residual activity,LIMK1 (human),97.1%
same,residual activity,AURKC (human),97.1%
same,residual activity,CDC42BPA (human),96.4%
same,residual activity,ERBB4 (human),99.7%
same,residual activity,NEK7 (human),93.4%
same,residual activity,VRK1 (human),105%
same,residual activity,NLK (human),99.2%
same,residual activity,TAOK3 (human),101%
same,residual activity,PKN1 (human),92.1%
same,residual activity,ACVR1B (human),107%
same,residual activity,RET (human),102%
same,residual activity,MATK (human),101%
same,residual activity,CAMK1D (human),108%
same,residual activity,CSF1R (human),93.6%
same,residual activity,MAP3K3 (human),98.1%
same,residual activity,PRKCH (human),106%
same,residual activity,RPS6KB2 (human),109%
same,residual activity,ULK1 (human),102%
same,residual activity,MAP2K2 (human),91%
same,residual activity,PHKG1 (human),95.8%
same,residual activity,CSNK1A1 (human),95.6%
same,residual activity,MAP3K14 (human),103%
same,residual activity,PTK2 (human),104%
same,residual activity,OXSR1 (human),103%
same,residual activity,HIPK1 (human),105%
same,residual activity,PIM3 (human),93.6%
same,residual activity,MELK (human),92%
same,residual activity,ALK (human),103%
CC#CC(=O)Nc1cc2c(Nc3ccc(F)c(Cl)c3)ncnc2cn1,residual activity,STK24 (human),107%
same,residual activity,KDR (human),98.2%
same,residual activity,HIPK3 (human),92.9%
same,residual activity,TEC (human),52.1%
same,residual activity,TNK2 (human),95.1%
same,residual activity,ACVRL1 (human),101%
same,residual activity,FGFR3 (human),108%
same,residual activity,FER (human),98.2%
same,residual activity,RPS6KA4 KD2 (human),100%
same,residual activity,PDGFRA (human),94.9%
same,residual activity,PRKX (human),103%
same,residual activity,SLK (human),93.6%
same,residual activity,LIMK1 (human),84.2%
same,residual activity,AURKC (human),95.9%
same,residual activity,CDC42BPA (human),93.1%
same,residual activity,ERBB4 (human),1.95%
same,residual activity,NEK7 (human),98.2%
same,residual activity,VRK1 (human),87.8%
same,residual activity,NLK (human),99.7%
same,residual activity,TAOK3 (human),110%
same,residual activity,PKN1 (human),101%
same,residual activity,ACVR1B (human),104%
same,residual activity,RET (human),84.3%
same,residual activity,MATK (human),95.8%
same,residual activity,CAMK1D (human),107%
same,residual activity,CSF1R (human),101%
same,residual activity,MAP3K3 (human),107%
same,residual activity,PRKCH (human),90.4%
same,residual activity,RPS6KB2 (human),97.2%
same,residual activity,ULK1 (human),96.6%
same,residual activity,MAP2K2 (human),106%
same,residual activity,PHKG1 (human),103%
same,residual activity,CSNK1A1 (human),107%
same,residual activity,MAP3K14 (human),80.4%
same,residual activity,PTK2 (human),102%
same,residual activity,OXSR1 (human),109%
same,residual activity,HIPK1 (human),108%
same,residual activity,PIM3 (human),89.1%
same,residual activity,MELK (human),101%
same,residual activity,ALK (human),103%
Cc1ccc(Nc2nccc(N(C)c3ccc4c(C)n(C)nc4c3)n2)cc1S(N)(=O)=O,residual activity,STK24 (human),106%
same,residual activity,HIPK3 (human),103%
same,residual activity,TEC (human),101%
same,residual activity,TNK2 (human),90.2%
same,residual activity,ACVRL1 (human),102%
same,residual activity,FGFR3 (human),39.3%
same,residual activity,FER (human),81.3%
same,residual activity,RPS6KA4 KD2 (human),102%
same,residual activity,PDGFRA (human),13.9%
same,residual activity,PRKX (human),101%
same,residual activity,SLK (human),84.9%
same,residual activity,AURKC (human),70.9%
same,residual activity,CDC42BPA (human),85.4%
same,residual activity,ERBB4 (human),86.9%
same,residual activity,NEK7 (human),101%
same,residual activity,VRK1 (human),100%
same,residual activity,PRKACG (human),111%
same,residual activity,NLK (human),69%
same,residual activity,TAOK3 (human),55.5%
same,residual activity,PKN1 (human),102%
same,residual activity,ACVR1B (human),100%
same,residual activity,RET (human),25.7%
same,residual activity,MATK (human),104%
same,residual activity,CAMK1D (human),91.5%
same,residual activity,MAP3K3 (human),112%
same,residual activity,PRKCH (human),110%
same,residual activity,RPS6KB2 (human),103%
same,residual activity,ULK1 (human),97.3%
same,residual activity,MAP2K2 (human),94.8%
same,residual activity,PHKG1 (human),92.5%
same,residual activity,CSNK1A1 (human),100%
same,residual activity,MAP3K14 (human),104%
same,residual activity,PTK2 (human),76%
same,residual activity,OXSR1 (human),103%
same,residual activity,MYO3B (human),83.4%
same,residual activity,HIPK1 (human),97.6%
same,residual activity,PIM3 (human),81.6%
same,residual activity,MELK (human),87.5%
same,residual activity,ALK (human),85.3%
Nc1cccc(-c2cc3c(Oc4cccc(O)c4)ncnc3[nH]2)c1,residual activity,STK24 (human),64.2%
same,residual activity,KDR (human),6.7%
same,residual activity,HIPK3 (human),94%
same,residual activity,TEC (human),108%
same,residual activity,TNK2 (human),19.6%
same,residual activity,ACVRL1 (human),70.3%
same,residual activity,FGFR3 (human),67.9%
same,residual activity,FER (human),44%
same,residual activity,RPS6KA4 KD2 (human),103%
same,residual activity,PDGFRA (human),73.6%
same,residual activity,PRKX (human),114%
same,residual activity,SLK (human),64.1%
same,residual activity,LIMK1 (human),22.1%
same,residual activity,AURKC (human),77.7%
same,residual activity,CDC42BPA (human),87.7%
same,residual activity,ERBB4 (human),75.8%
same,residual activity,NEK7 (human),99.4%
same,residual activity,VRK1 (human),81.6%
same,residual activity,NLK (human),87.7%
same,residual activity,TAOK3 (human),93.5%
same,residual activity,PKN1 (human),105%
same,residual activity,ACVR1B (human),122%
same,residual activity,RET (human),-0.229%
same,residual activity,MATK (human),97.8%
same,residual activity,CAMK1D (human),97.7%
same,residual activity,CSF1R (human),13.6%
same,residual activity,MAP3K3 (human),96.4%
same,residual activity,PRKCH (human),90%
same,residual activity,RPS6KB2 (human),94.7%
same,residual activity,ULK1 (human),143%
same,residual activity,MAP2K2 (human),104%
same,residual activity,PHKG1 (human),81.5%
same,residual activity,CSNK1A1 (human),61.8%
same,residual activity,MAP3K14 (human),69.6%
same,residual activity,PTK2 (human),88.4%
same,residual activity,OXSR1 (human),119%
same,residual activity,HIPK1 (human),82.7%
same,residual activity,PIM3 (human),129%
same,residual activity,MELK (human),93.4%
same,residual activity,ALK (human),80.9%
